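Results reflect a 48-hour exposure of cells in 96-well plates to compound at five concentrations. TGI: total growth inhibition.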
Experiments:
Test in all cases: NCI-60 cell line screen, 48 h
786-0 renal = system: 786-0 renal
A498 renal = system: A498 renal
A549 NSCLC = system: A549 NSCLC
ACHN renal = system: ACHN renal
BT-549 breast = system: BT-549 breast
CAKI-1 renal = system: CAKI-1 renal
CCRF-CEM leukemia = system: CCRF-CEM leukemia
COLO 205 colon = system: COLO 205 colon
DU-145 prostate = system: DU-145 prostate
EKVX NSCLC = system: EKVX NSCLC
HCC-2998 colon = system: HCC-2998 colon
HCT-116 colon = system: HCT-116 colon
HCT-15 colon = system: HCT-15 colon
HL-60(TB) leukemia = system: HL-60(TB) leukemia
HOP-62 NSCLC = system: HOP-62 NSCLC
HOP-92 NSCLC = system: HOP-92 NSCLC
HT29 colon = system: HT29 colon
IGROV1 ovarian = system: IGROV1 ovarian
K-562 leukemia = system: K-562 leukemia
KM12 colon = system: KM12 colon
LOX IMVI melanoma = system: LOX IMVI melanoma
M14 melanoma = system: M14 melanoma
MALME-3M melanoma = system: MALME-3M melanoma
MCF7 breast = system: MCF7 breast
MDA-MB-231 breast = system: MDA-MB-231 breast
MDA-MB-435 = system: MDA-MB-435
MDA-N = system: MDA-N
MOLT-4 leukemia = system: MOLT-4 leukemia
NCI-H226 lung = system: NCI-H226 lung
NCI-H23 lung = system: NCI-H23 lung
NCI-H460 lung = system: NCI-H460 lung
NCI-H522 lung = system: NCI-H522 lung
NCI/ADR-RES ovarian = system: NCI/ADR-RES ovarian
OVCAR-3 ovarian = system: OVCAR-3 ovarian
OVCAR-4 ovarian = system: OVCAR-4 ovarian
OVCAR-5 ovarian = system: OVCAR-5 ovarian
OVCAR-8 ovarian = system: OVCAR-8 ovarian
PC-3 prostate = system: PC-3 prostate
RPMI-8226 leukemia = system: RPMI-8226 leukemia
RXF 393 renal = system: RXF 393 renal
SF-295 CNS = system: SF-295 CNS
SF-539 CNS = system: SF-539 CNS
SK-MEL-2 melanoma = system: SK-MEL-2 melanoma
SK-MEL-28 melanoma = system: SK-MEL-28 melanoma
SK-MEL-5 melanoma = system: SK-MEL-5 melanoma
SK-OV-3 ovarian = system: SK-OV-3 ovarian
SN12C renal = system: SN12C renal
SNB-19 CNS = system: SNB-19 CNS
SNB-75 CNS = system: SNB-75 CNS
SR leukemia = system: SR leukemia
SW-620 colon = system: SW-620 colon
U251 CNS = system: U251 CNS
UACC-257 melanoma = system: UACC-257 melanoma
UACC-62 melanoma = system: UACC-62 melanoma
UO-31 renal = system: UO-31 renal
HS 578T breast = system: HS 578T breast
SF-268 CNS = system: SF-268 CNS
TK-10 renal = system: TK-10 renal

c1ccc2c(c1)c(N1CCCCC1)cc1nc3c(cc(N4CCCCC4)c4ccccc43)nc12
TGI (786-0 renal): > 100 µM | TGI (A498 renal): > 100 µM | TGI (A549 NSCLC): > 100 µM | TGI (ACHN renal): > 100 µM | TGI (BT-549 breast): > 100 µM | TGI (CAKI-1 renal): > 100 µM | TGI (CCRF-CEM leukemia): > 100 µM | TGI (COLO 205 colon): > 100 µM | TGI (DU-145 prostate): > 100 µM | TGI (EKVX NSCLC): > 100 µM | TGI (HCC-2998 colon): > 100 µM | TGI (HCT-116 colon): > 100 µM | TGI (HCT-15 colon): > 100 µM | TGI (HL-60(TB) leukemia): > 100 µM | TGI (HOP-62 NSCLC): > 100 µM | TGI (HOP-92 NSCLC): > 100 µM | TGI (HT29 colon): > 100 µM | TGI (IGROV1 ovarian): > 100 µM | TGI (K-562 leukemia): > 100 µM | TGI (KM12 colon): > 100 µM | TGI (LOX IMVI melanoma): > 100 µM | TGI (M14 melanoma): > 100 µM | TGI (MALME-3M melanoma): > 100 µM | TGI (MCF7 breast): > 100 µM | TGI (MDA-MB-231 breast): > 100 µM | TGI (MDA-MB-435): > 100 µM | TGI (MDA-N): > 100 µM | TGI (MOLT-4 leukemia): > 100 µM | TGI (NCI-H226 lung): > 100 µM | TGI (NCI-H23 lung): > 100 µM | TGI (NCI-H460 lung): > 100 µM | TGI (NCI-H522 lung): > 100 µM | TGI (NCI/ADR-RES ovarian): > 100 µM | TGI (OVCAR-3 ovarian): > 100 µM | TGI (OVCAR-4 ovarian): > 100 µM | TGI (OVCAR-5 ovarian): > 100 µM | TGI (OVCAR-8 ovarian): > 100 µM | TGI (PC-3 prostate): > 100 µM | TGI (RPMI-8226 leukemia): > 100 µM | TGI (RXF 393 renal): > 100 µM | TGI (SF-295 CNS): > 100 µM | TGI (SF-539 CNS): > 100 µM | TGI (SK-MEL-2 melanoma): > 100 µM | TGI (SK-MEL-28 melanoma): > 100 µM | TGI (SK-MEL-5 melanoma): > 100 µM | TGI (SK-OV-3 ovarian): > 100 µM | TGI (SN12C renal): > 100 µM | TGI (SNB-19 CNS): > 100 µM | TGI (SNB-75 CNS): > 100 µM | TGI (SR leukemia): > 100 µM | TGI (SW-620 colon): > 100 µM | TGI (U251 CNS): > 100 µM | TGI (UACC-257 melanoma): > 100 µM | TGI (UACC-62 melanoma): > 100 µM | TGI (UO-31 renal): > 100 µM

COc1ccc(N=Nc2c(O)ccc3ccccc23)cc1
TGI (786-0 renal): > 100 µM | TGI (A549 NSCLC): 39.5 µM | TGI (ACHN renal): 57.7 µM | TGI (BT-549 breast): 56.1 µM | TGI (CAKI-1 renal): > 100 µM | TGI (CCRF-CEM leukemia): > 100 µM | TGI (COLO 205 colon): > 100 µM | TGI (EKVX NSCLC): 34.8 µM | TGI (HCT-116 colon): > 100 µM | TGI (HCT-15 colon): > 100 µM | TGI (HL-60(TB) leukemia): > 100 µM | TGI (HOP-62 NSCLC): 26.7 µM | TGI (HOP-92 NSCLC): 47.7 µM | TGI (HS 578T breast): 23.2 µM | TGI (HT29 colon): 38 µM | TGI (IGROV1 ovarian): 24.2 µM | TGI (KM12 colon): 24.9 µM | TGI (LOX IMVI melanoma): > 100 µM | TGI (M14 melanoma): > 100 µM | TGI (MALME-3M melanoma): 32.9 µM | TGI (MDA-MB-231 breast): 96.5 µM | TGI (MDA-MB-435): > 100 µM | TGI (MDA-N): > 100 µM | TGI (MOLT-4 leukemia): > 100 µM | TGI (NCI-H226 lung): 47.6 µM | TGI (NCI-H23 lung): 85.2 µM | TGI (NCI-H522 lung): 60.9 µM | TGI (NCI/ADR-RES ovarian): > 100 µM | TGI (OVCAR-3 ovarian): > 100 µM | TGI (OVCAR-4 ovarian): 32.3 µM | TGI (OVCAR-5 ovarian): 60.6 µM | TGI (OVCAR-8 ovarian): 29.1 µM | TGI (PC-3 prostate): > 100 µM | TGI (RXF 393 renal): > 100 µM | TGI (SF-268 CNS): 37.7 µM | TGI (SF-295 CNS): 30.1 µM | TGI (SK-MEL-2 melanoma): > 100 µM | TGI (SK-MEL-28 melanoma): > 100 µM | TGI (SK-OV-3 ovarian): 28.1 µM | TGI (SN12C renal): > 100 µM | TGI (SNB-75 CNS): 37.7 µM | TGI (SR leukemia): 41.7 µM | TGI (SW-620 colon): > 100 µM | TGI (TK-10 renal): 34 µM | TGI (U251 CNS): 30.6 µM | TGI (UACC-257 melanoma): > 100 µM | TGI (UACC-62 melanoma): 36.3 µM | TGI (UO-31 renal): > 100 µM

Cc1cc(C)c(C2CC(O)C(CO)O2)cc1C (centres undefined)
TGI (786-0 renal): > 100 µM | TGI (A549 NSCLC): > 100 µM | TGI (ACHN renal): > 100 µM | TGI (BT-549 breast): > 100 µM | TGI (CAKI-1 renal): > 100 µM | TGI (CCRF-CEM leukemia): > 100 µM | TGI (EKVX NSCLC): > 100 µM | TGI (HCC-2998 colon): > 100 µM | TGI (HCT-116 colon): > 100 µM | TGI (HCT-15 colon): > 100 µM | TGI (HOP-62 NSCLC): > 100 µM | TGI (HS 578T breast): > 100 µM | TGI (HT29 colon): > 100 µM | TGI (IGROV1 ovarian): > 100 µM | TGI (K-562 leukemia): > 100 µM | TGI (KM12 colon): > 100 µM | TGI (LOX IMVI melanoma): > 100 µM | TGI (M14 melanoma): > 100 µM | TGI (MALME-3M melanoma): > 100 µM | TGI (MDA-MB-231 breast): > 100 µM | TGI (MDA-MB-435): > 100 µM | TGI (MDA-N): > 100 µM | TGI (MOLT-4 leukemia): > 100 µM | TGI (NCI-H226 lung): > 100 µM | TGI (NCI-H23 lung): > 100 µM | TGI (NCI-H460 lung): > 100 µM | TGI (NCI-H522 lung): > 100 µM | TGI (NCI/ADR-RES ovarian): > 100 µM | TGI (OVCAR-3 ovarian): > 100 µM | TGI (OVCAR-4 ovarian): > 100 µM | TGI (OVCAR-5 ovarian): > 100 µM | TGI (OVCAR-8 ovarian): > 100 µM | TGI (PC-3 prostate): > 100 µM | TGI (RPMI-8226 leukemia): > 100 µM | TGI (SF-268 CNS): > 100 µM | TGI (SF-295 CNS): > 100 µM | TGI (SF-539 CNS): > 100 µM | TGI (SK-MEL-2 melanoma): > 100 µM | TGI (SK-MEL-28 melanoma): > 100 µM | TGI (SK-MEL-5 melanoma): > 100 µM | TGI (SK-OV-3 ovarian): > 100 µM | TGI (SN12C renal): > 100 µM | TGI (SNB-19 CNS): > 100 µM | TGI (SNB-75 CNS): > 100 µM | TGI (SR leukemia): > 100 µM | TGI (SW-620 colon): > 100 µM | TGI (TK-10 renal): > 100 µM | TGI (U251 CNS): > 100 µM | TGI (UACC-257 melanoma): > 100 µM | TGI (UACC-62 melanoma): > 100 µM | TGI (UO-31 renal): > 100 µM

From PubChem BioAssay (NCI)
